Data on 4 molecules can be found in paper PMC12645469 (Nature structural & molecular biology, 2024).

In data set [1] the target is T1, NaDC3 (Homo sapiens, UniProt Q8WWT9).
T1 sequence (Q8WWT9 1-602): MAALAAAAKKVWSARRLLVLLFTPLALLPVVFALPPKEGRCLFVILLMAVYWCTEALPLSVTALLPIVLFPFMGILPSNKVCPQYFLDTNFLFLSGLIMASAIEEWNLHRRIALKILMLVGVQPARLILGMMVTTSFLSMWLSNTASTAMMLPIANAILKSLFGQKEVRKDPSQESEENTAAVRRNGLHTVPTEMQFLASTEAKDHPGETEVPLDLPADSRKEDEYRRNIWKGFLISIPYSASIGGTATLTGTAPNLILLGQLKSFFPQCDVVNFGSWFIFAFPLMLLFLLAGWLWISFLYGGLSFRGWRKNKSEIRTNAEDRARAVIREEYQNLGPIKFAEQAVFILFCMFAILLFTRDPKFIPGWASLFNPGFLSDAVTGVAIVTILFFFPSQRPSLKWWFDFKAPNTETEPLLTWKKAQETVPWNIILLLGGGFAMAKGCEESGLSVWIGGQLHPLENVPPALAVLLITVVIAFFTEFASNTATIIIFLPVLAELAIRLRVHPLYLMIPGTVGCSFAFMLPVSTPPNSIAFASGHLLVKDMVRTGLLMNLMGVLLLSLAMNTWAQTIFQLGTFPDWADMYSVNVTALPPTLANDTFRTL
The experiment in a line: intrinsic tryptophan fluorescence quenching. It is filed as binding.

In data set [2] the target is T1, NaDC3. The experiment in a line: cryo-EM structure. Type of data set: cell-based.
For data set [3], the target named is NaDC3 (Homo sapiens, UniProt Q8WWT9, F93Y).
The target in data set [4] is T1, NaDC3. As to the kind of experiment: biochemical.
The data set “cryo-EM structure” deals with the molecule itself. The experiment in a line: cryo-EM structure.

Sequence of NaDC3 (Homo sapiens, UniProt Q8WWT9, F93Y) (Q8WWT9 whole entry F93Y): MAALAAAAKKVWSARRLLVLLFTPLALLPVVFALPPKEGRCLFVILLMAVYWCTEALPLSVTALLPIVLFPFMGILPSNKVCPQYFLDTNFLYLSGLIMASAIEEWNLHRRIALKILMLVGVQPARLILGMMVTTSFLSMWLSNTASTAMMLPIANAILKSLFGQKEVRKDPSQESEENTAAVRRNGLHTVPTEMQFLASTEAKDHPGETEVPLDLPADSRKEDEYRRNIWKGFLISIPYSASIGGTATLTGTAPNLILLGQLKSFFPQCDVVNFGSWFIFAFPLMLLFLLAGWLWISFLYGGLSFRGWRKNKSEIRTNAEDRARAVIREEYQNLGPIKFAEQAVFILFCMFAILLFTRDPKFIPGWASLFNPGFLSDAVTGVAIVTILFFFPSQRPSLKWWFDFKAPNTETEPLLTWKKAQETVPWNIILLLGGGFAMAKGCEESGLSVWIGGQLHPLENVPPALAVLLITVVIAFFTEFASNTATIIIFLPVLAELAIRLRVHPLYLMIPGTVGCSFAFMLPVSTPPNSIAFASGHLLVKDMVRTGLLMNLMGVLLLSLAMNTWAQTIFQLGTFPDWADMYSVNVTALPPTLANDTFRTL

The term Kd denotes the concentration at which binding is half-saturated. A high value points to lower affinity. On to `CC(C(=O)O)C(C)C(=O)O` (centres unmarked) [DMS, 2,3-dimethylsuccinate], for which the Kd on NaDC3 [1] turned out to be 10.2 ± 5.6 µM.
In general, IC50 refers to the concentration that gives 50% inhibition. High values mean lower potency, low ones higher potency. In turn, `COc1ncc(C)cc1CC[C@@](O)(CC(=O)O)C(=O)O` [PF4a, PF-06761281] gave a concentration for half-maximal inhibition (IC50) against NaDC3 [2] of 39.2 µM.
In general, Km refers to the substrate concentration at which the rate is half of its maximum. For `O=C(O)CCC(=O)O` [Succ, succinate], the Km on NaDC3 [3] was 10.5 ± 5.9 µM. Also, the Kd on NaDC3 [4] amounted to 17.6 ± 9.8 µM.

B1: human high affinity sodium-dicarboxylate cotransporter NaDC3 (natural protein)
chain: MAALAAAAKKVWSARRLLVLLFTPLALLPVVFALPPKEGRCLFVILLMAVYWCTEALPLSVTALLPIVLFPFMGILPSNKVCPQYFLDTNFLFLSGLIMASAIEEWNLHRRIALKILMLVGVQPARLILGMMVTTSFLSMWLSNTASTAMMLPIANAILKSLFGQKEVRKDPSQESEENTAAVRRNGLHTVPTEMQFLASTEAKDHPGETEVPLDLPADSRKEDEYRRNIWKGFLISIPYSASIGGTATLTGTAPNLILLGQLKSFFPQCDVVNFGSWFIFAFPLMLLFLLAGWLWISFLYGGLSFRGWRKNKSEIRTNAEDRARAVIREEYQNLGPIKFAEQAVFILFCMFAILLFTRDPKFIPGWASLFNPGFLSDAVTGVAIVTILFFFPSQRPSLKWWFDFKAPNTETEPLLTWKKAQETVPWNIILLLGGGFAMAKGCEESGLSVWIGGQLHPLENVPPALAVLLITVVIAFFTEFASNTATIIIFLPVLAELAIRLRVHPLYLMIPGTVGCSFAFMLPVSTPPNSIAFASGHLLVKDMVRTGLLMNLMGVLLLSLAMNTWAQTIFQLGTFPDWADMYSVNVTALPPTLANDTFRTL
One may read the stoichiometry N as the number of molecules, sites or subunits per partner or assembly. Take B1: in “cryo-EM structure”, the “stoichiometry N” value came out at 2.
